Results from ChEMBL document CHEMBL1201862, “PubChem BioAssay data set” (2004).
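Five compound concentrations were applied to cells in 96-well plates for 48 hours; endpoints were derived by simple linear interpolation of the resulting dose-response curve. At the GI50, growth is halved.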 Activity calls are given as the source filed them. Rule as the data show it: active = GI50 up to about 1.1 µM and inactive = higher.

Assays:
Test in all cases: inhibition of tumour cell growth, NCI panel, 48 h
DMS-114 = test system: DMS-114
HOP-18 = test system: HOP-18
SNB-78 = test system: SNB-78
XF498 = test system: XF498
DMS-273 = test system: DMS-273
T47D = test system: T47D
786-0 = test system: 786-0
LXFL 529 = test system: LXFL 529

Structure (SMILES): O=C1C=C(C2OC(CO)C(O)C2O)C(=O)N1 (stereo unspecified)
- GI50 (DMS-114): 54.8 µM (inactive)
- GI50 (HOP-18): > 100 µM (inactive)
- GI50 (SNB-78): > 100 µM (inactive)
- GI50 (XF498): < 0.01 µM (active)
- GI50 (DMS-273): > 100 µM (inactive)

Structure (SMILES): O=C(C[C@H](NC(=O)OCc1ccccc1)C(=O)NC1Cc2ccccc2OC1=O)OCc1ccccc1 (stereo partly specified)
- GI50 (T47D): 94.8 µM (inactive)

Structure (SMILES): CN(C(=O)C1(C(=O)C=[N+]=[N-])CC1)c1ccccc1
- GI50 (786-0): > 100 µM (inactive)

Structure (SMILES): CCOC(=O)NC(C(F)(F)F)(C(F)(F)F)P(=O)(OCC(C)C)OCC(C)C
- GI50 (T47D): 23.8 µM (inactive)

Structure (SMILES): CCOC(=O)c1csc(NC(=O)CCN2CCCC2)n1
- GI50 (T47D): > 100 µM (inactive)

Structure (SMILES): CC(=O)OCc1nnn2c1CCC2
- GI50 (HOP-18): > 100 µM (inactive)
- GI50 (SNB-78): > 100 µM (inactive)
- GI50 (LXFL 529): > 100 µM (inactive)
- GI50 (XF498): > 100 µM (inactive)

Structure (SMILES): O=C1CC2(CCC(O)(c3cccs3)C(C(=O)c3cccs3)C2)C(=O)c2ccccc2N1 (stereo unspecified)
- GI50 (T47D): 18.2 µM (inactive)

Structure (SMILES): C/C(=N\Oc1cc(Cl)ncn1)c1ccccn1
- GI50 (T47D): 30.2 µM (inactive)

Structure (SMILES): COc1ccc(-c2cc3[nH]nc(N)c3c(=O)o2)cc1
- GI50 (DMS-114): 72.4 µM (inactive)
- GI50 (HOP-18): > 100 µM (inactive)
- GI50 (SNB-78): > 100 µM (inactive)
- GI50 (LXFL 529): > 100 µM (inactive)
- GI50 (XF498): > 100 µM (inactive)
- GI50 (DMS-273): > 100 µM (inactive)

Structure (SMILES): C=C(C)C(=O)OC1CCC2(C)C(CCC3C2CCC2(C)C(c4ccc(=O)oc4)CC4OC432)C1 (stereo unspecified)
- GI50 (DMS-114): 2.43 µM (inactive)
- GI50 (HOP-18): 13.3 µM (inactive)
- GI50 (SNB-78): 5.47 µM (inactive)
- GI50 (XF498): 5.15 µM (inactive)
- GI50 (DMS-273): 3.31 µM (inactive)

Structure (SMILES): C=CCCCCCCCCC(=O)O [UNDECYLENIC ACID]
- GI50 (DMS-114): 135 µM (inactive)
- GI50 (HOP-18): 125 µM (inactive)
- GI50 (SNB-78): 106 µM (inactive)
- GI50 (XF498): 17.1 µM (inactive)
- GI50 (DMS-273): 127 µM (inactive)
